Measurements reported in PMC11510666, “Thiazolidinedione-Conjugated Lupeol Derivatives as Potent Anticancer Agents Through a Mitochondria-Mediated Apoptotic Pathway” (Molecules, 2024).

Columns and labels:
[1] = system: human breast cancer MCF-7; assay: MTT antiproliferative assay, MCF-7; assay type: cell-based; details: mean ± SD, three independent experiments
Method: (§1) These cell lines were cultured in Dulbecco's Modified Eagle Medium containing 10% (v/v) fetal bovine serum (FBS, Wisent) and 1% (v/v) Penicillin-Streptomycin Solution mixture (Beyotime, Shanghai, China) at 37 °C under 5% CO2. An MTT assay evaluated the cytotoxicity of lupeol derivatives toward the A549, MCF-7, HepG2, and LO2 cell lines. The cells were inoculated into 96-well plates (3 × 10^3 cells/well) and cultured for 24 h at 37 °C in 5% CO2. After that, a gradient concentration of the test drug was added to continue the incubation for 48 h. Subsequently, the MTT solution continued to incubate with the cells for 4 h. Afterward, the upper waste layer was discarded, and DMSO was added ([…], Tianjin, China). After the formazan completely dissolved, the absorbance of each well at 490 nm was measured with a microplate reader. The mean values were derived from three independent experiments.

[2] = system: human hepatic LO2 cells; details: read-out: IC50 LO2; MTT, 48 h, mean ± SD, three independent experiments
Method: as §1

[3] = system: human hepatocarcinoma HepG2; assay: MTT antiproliferative assay, HepG2; assay type: cell-based; details: for SI (selectivity index): IC50 values on L02 cells/HepG2 cells; for IC50: MTT, 48 h, mean ± SD, three independent experiments
Method: as §1

[4] = system: human lung cancer A549; assay: MTT antiproliferative assay, A549; assay type: cell-based; details: 48 h, mean ± SD, three independent experiments
Method: as §1

Compound	IC50 ([1]; 48 h)	IC50 [2]	SI (selectivity index) [3]	IC50 [3]	IC50 [4]	IC50 ([1]; Homo sapiens, MCF7, 48 h)	IC50 ([3]; Homo sapiens, HepG2)
C=C(C)C1CCC2(C)CCC3(C)C(CCC4C5(C)CCC(OC(=O)CN6C(=O)SC(=Cc7ccc(C)cc7)C6=O)C(C)(C)C5CCC43C)C12 (stereo not shown) [Compound 6c, Lupeol-3-[(1-Ethyl)-2]-5-(4-Methylbenzylidene)-2,4-Thiazolidinedione]	22.1 ± 1.42 µM	76.4 ± 1.22 µM	4.2	18.2 ± 1.27 µM	10.4 ± 0.82 µM		
C=C(C)C1CCC2(C)CCC3(C)C(CCC4C5(C)CCC(OC(=O)N6CCN(C(=O)CN7C(=O)SC(=Cc8ccc(Cl)cc8)C7=O)CC6)C(C)(C)C5CCC43C)C12 (stereo not shown) [Compound 9b, Lupeol-3-[(1-Piperazinyl)-4]-5-(4-Chlorobenzylidene)-2,4-Thiazolidinedione]	14 ± 0.87 µM	80.5 ± 1.79 µM	4.44	18.1 ± 1.73 µM	15.5 ± 0.64 µM		
C=C(C)C1CCC2(C)CCC3(C)C(CCC4C5(C)CCC(OC(=O)CN6C(=O)SC(=Cc7ccc(C(C)(C)C)cc7)C6=O)C(C)(C)C5CCC43C)C12 (stereo not shown) [Compound 6d, Lupeol-3-[(1-Ethyl)-2]-5-(4-Tert-Butylphenyl)-2,4-Thiazolidinedione]	15.4 ± 1.22 µM	39.2 ± 1.07 µM	3.61	10.9 ± 0.78 µM	14.2 ± 1.43 µM		
C=C(C)C1CCC2(C)CCC3(C)C(CCC4C5(C)CCC(OC(=O)NCCNC(=O)CN6C(=O)SC(=Cc7ccc(F)cc7)C6=O)C(C)(C)C5CCC43C)C12 (stereo not shown) [Compound 12a, Lupeol-3-[(1-Ethylenediaminyl)-4]-5-(4-Fluorobenzylidene)-2,4-Thiazolidinedione]	16.8 ± 1.29 µM	71.03 ± 0.57 µM	4.30	16.5 ± 0.54 µM	10.5 ± 0.56 µM		
C=C(C)C1CCC2(C)CCC3(C)C(CCC4C5(C)CCC(OC(=O)CN6C(=O)SC(=Cc7ccc(Cl)cc7)C6=O)C(C)(C)C5CCC43C)C12 (stereo not shown) [Compound 6b, Lupeol-3-[(1-Ethyl)-2]-5-(4-Chlorobenzylidene)-2,4-Thiazolidinedione]	13.8 ± 0.75 µM	70.5 ± 1.51 µM	4.25	16.6 ± 1.38 µM	14.2 ± 1.72 µM		
C=C(C)C1CCC2(C)CCC3(C)C(CCC4C5(C)CCC(OC(=O)CN6C(=O)SC(=Cc7ccc(OC)c(OC)c7OC)C6=O)C(C)(C)C5CCC43C)C12 (stereo not shown) [Compound 6f, Lupeol-3-[(1-Ethyl)-2]-5-(2,3,4-Trimethoxybenzylidene)-2,4-Thiazolidinedione]	16.1 ± 0.89 µM	85.3 ± 1.12 µM	4.44	19.2 ± 1.57 µM	10.3 ± 0.86 µM		
C=C(C)C1CCC2(C)CCC3(C)C(CCC4C5(C)CCC(OC(=O)NCCNC(=O)CN6C(=O)SC(=Cc7ccc(C(C)(C)C)cc7)C6=O)C(C)(C)C5CCC43C)C12 (stereo not shown) [Compound 12d, Lupeol-3-[(1-Ethylenediaminyl)-4]-5-(4-Tert-Butylphenyl)-2,4-Thiazolidinedione]	9.12 ± 0.24 µM	59.9 ± 1.03 µM	3.80	15.8 ± 0.68 µM	16.4 ± 0.43 µM		
C=C(C)C1CCC2(C)CCC3(C)C(CCC4C5(C)CCC(OC(=O)CN6C(=O)SC(=Cc7cccs7)C6=O)C(C)(C)C5CCC43C)C12 (stereo not shown) [Compound 6h, Lupeol-3-[(1-Ethyl)-2]-5-(2-Thienylmethylene)-2,4-Thiazolidinedione]	11.3 ± 0.85 µM	58.4 ± 0.78 µM	4.55	12.8 ± 0.97 µM	14 ± 1.39 µM		
C=C(C)C1CCC2(C)CCC3(C)C(CCC4C5(C)CCC(OC(=O)N6CCN(C(=O)CN7C(=O)SC(=Cc8ccc(F)cc8)C7=O)CC6)C(C)(C)C5CCC43C)C12 (stereo not shown) [Compound 9a, Lupeol-3-[(1-Piperazinyl)-4]-5-(4-Fluorobenzylidene)-2,4-Thiazolidinedione]	19.1 ± 1.78 µM	79.1 ± 1.25 µM	3.87	20.5 ± 1.62 µM	18.7 ± 1.25 µM		
C=C(C)C1CCC2(C)CCC3(C)C(CCC4C5(C)CCC(OC(=O)N6CCN(C(=O)CN7C(=O)SC(=Cc8ccc(C)cc8)C7=O)CC6)C(C)(C)C5CCC43C)C12 (stereo not shown) [Compound 9c, Lupeol-3-[(1-Piperazinyl)-2]-5-(4-Methylbenzylidene)-2,4-Thiazolidinedione]	16.3 ± 0.76 µM	65.1 ± 0.93 µM	4.14	15.7 ± 1.52 µM	12.7 ± 0.68 µM		
C=C(C)C1CCC2(C)CCC3(C)C(CCC4C5(C)CCC(OC(=O)CN6C(=O)SC(=Cc7ccc(F)cc7)C6=O)C(C)(C)C5CCC43C)C12 (stereo not shown) [Compound 6a, Lupeol-3-[(1-Ethyl)-2]-5-(4-Fluorobenzylidene)-2,4-Thiazolidinedione]	24 ± 1.87 µM	92.6 ± 1.03 µM	4.07	22.7 ± 1.59 µM	17.3 ± 1.58 µM		
C=C(C)C1CCC2(C)CCC3(C)C(CCC4C5(C)CCC(OC(=O)N6CCN(C(=O)CN7C(=O)SC(=Cc8ccc(OC)c(OC)c8OC)C7=O)CC6)C(C)(C)C5CCC43C)C12 (stereo not shown) [Compound 9f, Lupeol-3-[(1-Piperazinyl)-4]-5-(2,3,4-Trimethoxybenzylidene)-2,4-Thiazolidinedione]	9.19 ± 0.46 µM	56.1 ± 0.77 µM	5.19	10.8 ± 0.45 µM	9.24 ± 0.48 µM		
C=C(C)C1CCC2(C)CCC3(C)C(CCC4C5(C)CCC(OC(=O)N6CCN(C(=O)CN7C(=O)SC(=Cc8ccco8)C7=O)CC6)C(C)(C)C5CCC43C)C12 (stereo not shown) [Compound 9g, Lupeol-3-[(1-Piperazinyl)-4]-5-(2-Furanylmethylene)-2,4-Thiazolidinedione]	12 ± 0.75 µM	62.77 ± 0.62 µM	4.19	15 ± 0.74 µM	9.91 ± 0.42 µM		
C=C(C)C1CCC2(C)CCC3(C)C(CCC4C5(C)CCC(OC(=O)N6CCN(C(=O)CN7C(=O)SC(=Cc8cccs8)C7=O)CC6)C(C)(C)C5CCC43C)C12 (stereo not shown) [Compound 9h, Lupeol-3-[(1-Piperazinyl)-4]-5-(2-Thienylmethylene)-2,4-Thiazolidinedione]	13.8 ± 0.58 µM	68.9 ± 1.19 µM	4.50	15.3 ± 0.98 µM	16.4 ± 1.69 µM		
C=C(C)C1CCC2(C)CCC3(C)C(CCC4C5(C)CCC(OC(=O)NCCNC(=O)CN6C(=O)SC(=Cc7cccs7)C6=O)C(C)(C)C5CCC43C)C12 (stereo not shown) [Compound 12h, Lupeol-3-[(1-Ethylenediaminyl)-4]-5-(2-Thienylmethylene)-2,4-Thiazolidinedione]	17.3 ± 1.28 µM	77.5 ± 1.27 µM		18.6 ± 1.49 µM	13.4 ± 1.08 µM		
C=C(C)C1CCC2(C)CCC3(C)C(CCC4C5(C)CCC(OC(=O)CN6C(=O)SC(=CC(C)C)C6=O)C(C)(C)C5CCC43C)C12 (stereo not shown) [Compound 6i, Lupeol-3-[(1-Ethyl)-2]-5-(2-Methylpropylidene)-2,4-Thiazolidinedione]	8.7 ± 0.12 µM	45.5 ± 1.33 µM	4.80	9.48 ± 0.71 µM	11.3 ± 0.91 µM		
C=C(C)C1CCC2(C)CCC3(C)C(CCC4C5(C)CCC(OC(=O)NCCNC(=O)CN6C(=O)SC(=Cc7ccco7)C6=O)C(C)(C)C5CCC43C)C12 (stereo not shown) [Compound 12g, Lupeol-3-[(1-Ethylenediaminyl)-4]-5-(2-Furanylmethylene)-2,4-Thiazolidinedione]	16.4 ± 0.87 µM	63.2 ± 1.31 µM	4.42	14.3 ± 0.56 µM	15.7 ± 1.42 µM		
C=C(C)C1CCC2(C)CCC3(C)C(CCC4C5(C)CCC(OC(=O)CN6C(=O)SC(=Cc7ccco7)C6=O)C(C)(C)C5CCC43C)C12 (stereo not shown) [Compound 6g, Lupeol-3-[(1-Ethyl)-2]-5-(2-Furanylmethylene)-2,4-Thiazolidinedione]	12.8 ± 0.22 µM	60.6 ± 1.84 µM	3.95	15.3 ± 1.32 µM	14.9 ± 1.21 µM		
C=C(C)C1CCC2(C)CCC3(C)C(CCC4C5(C)CCC(OC(=O)NCCNC(=O)CN6C(=O)SC(=Cc7ccc(OC)c(OC)c7OC)C6=O)C(C)(C)C5CCC43C)C12 (stereo not shown) [Compound 12f, Lupeol-3-[(1-Ethylenediaminyl)-4]-5-(2,3,4-Trimethoxybenzylidene)-2,4-Thiazolidinedione]	10 ± 0.22 µM	35.53 ± 0.34 µM	3.77	9.43 ± 0.78 µM	9.68 ± 0.52 µM		
C=C(C)C1CCC2(C)CCC3(C)C(CCC4C5(C)CCC(OC(=O)NCCNC(=O)CN6C(=O)SC(=Cc7ccccc7OC)C6=O)C(C)(C)C5CCC43C)C12 (stereo not shown) [Compound 12e, Lupeol-3-[(1-Ethylenediaminyl)-4]-5-(2-Methoxybenzylidene)-2,4-Thiazolidinedione]	14.4 ± 0.72 µM	57.7 ± 1.14 µM	4.46	12.9 ± 0.52 µM	13.8 ± 0.76 µM		
C=C(C)[C@@H]1CC[C@]2(C)CC[C@]3(C)[C@H](CC[C@@H]4[C@@]5(C)CC[C@H](O)C(C)(C)[C@@H]5CC[C@]43C)[C@@H]12 [Lupeol]						62 ± 1.79 µM	43.6 ± 1.37 µM
C=C(C)C1CCC2(C)CCC3(C)C(CCC4C5(C)CCC(OC(=O)N6CCN(C(=O)CN7C(=O)SC(=Cc8ccc(C(C)(C)C)cc8)C7=O)CC6)C(C)(C)C5CCC43C)C12 (stereo not shown) [Compound 9d, Lupeol-3-[(1-Piperazinyl)-4]-5-(4-Tert-Butylphenyl)-2,4-Thiazolidinedione]	18.1 ± 1.93 µM	42.2 ± 1.28 µM	4.43	9.52 ± 0.61 µM	11.7 ± 0.75 µM		
N.N.[Cl][Pt][Cl] [Cisplatin, cisplatin, reference compound]	5.79 ± 0.49 µM			4.65 ± 0.54 µM	4.96 ± 0.48 µM		
